We go through two compounds from patent US10214762B2, “Cell differentiation devices and methods” (GEORGIA TECH RESEARCH CORPORATION, priority 2014, dated 2019).

For experiment [1], the system named is E. Coli strain (ATCC 43888). Nature of the experiment: three-channel, six-chamber microfluidic chemotaxis assay. The class given is cell-based, Escherichia coli. The protocol: PBS, Tris and LB were autoclaved before use. E Coli strain (ATCC 43888) was obtained from Fisher Scientific (Pittsburgh, Pa.). All cultures were grown in 10 mL of LB incubated at 37° C. for approximately 4 hours until the optical density of sample at wavelength of 600 nm reached 0.8. Optical density at 600 nm was measured for cell culture quantification.
An exemplary device described and depicted herein consists of a center channel that delivers a bacteria sample from a small reservoir to the central interaction region, where the channel is perpendicularly connected to six chambers. […] These channels serve as a source for generating a chemical gradient in the chambers. A nitrocellulose membrane (Millipore type GSTF) with a 0.22 μm pore size serves as a porous medium that separates the side channels from the chambers while allowing chemicals to diffuse through to the chambers. The pore size of 0.22 μm was selected as an exemplary pore size to ensure chemical axial flow through the porous nitrocellulose substrate, while prohibiting the passage of the cells or analyte to be analyzed through the porous substrate. Other pore sizes may be utilized depending on the type of assay and cells or analyte to be analyzed are contemplated herein.
The same volume of buffer saline was taken back through the filter into the syringe; suspending the cells in the buffer saline medium. This process was repeated three times to ensure the complete exchange of growth medium with buffer saline. The bacterial motility was not affected.
The microfluidic device was prepared as follow. The top glass assembly was properly cleaned and reused for many experiments, while the membrane and the bottom glass were renewed for each experiment. Acetone, isopropanol, and DI water were used to effectively clean the top glass and reservoirs. The membrane layer was soaked entirely in buffer solution for 30 min before use to ensure the removal of all air bubbles. The soaked membrane was then aligned with the inlet/outlet ports on the top glass and sandwiched between the top glass and another glass slide using 6 small stainless steel clips that provide constant and consistent pressure over the entire membrane area, as shown in FIG. 3.
After the device assembly, the input reservoirs were filled with buffer and the output reservoirs were vacuumed for a few seconds, the strong resulting flow expels all possible bubbles from the microfluidic system. The channels were inspected under microscope before conducting tests. All the experiments were conducted at least for three times to determine reproducibility. The bacterial chemotaxis experiments were conducted at an ambient temperature of 36° C.
Chemotactic response of cells to a chemical gradient was tested in another set of experiments. […]

For experiment [2] the following is noted: capillary assay; cited from earlier work.
Experiment [3] concerns E Coli. Particulars: about 20 mM aspartic acid; cited from earlier work.
The test system of experiment [4] is E Coli. Particulars: agarose gel diffusive medium; cited from earlier work.

For the compound `[Cl][Ni][Cl]` [NiCl2, nickel chloride], in experiment [1] (0.5 mM NiCl2 as repellent, Tris Buffered Saline), the “ratio of bacteria count in the buffer chambers to the repellent side chambers” value is on record as “more than 8 times”. Moreover, in experiment [1] (due to an increase in tumbling frequency), the “motility of the cells after introducing the repellent” value was “reduced to some degree”.
`N[C@@H](CC(=O)O)C(=O)O` [aspartic acid, L-aspartic acid]: the “chemotaxis index (IC)” value in experiment [1] (0.5 mM aspartic acid in PBS buffer as attractant, cells in attractant chambers vs buffer side chambers, about 30 min) was found to be 4. Further, the “aspartic acid concentration giving a more significant chemotactic response” value in experiment [1] (different aspartic acid concentrations tried) is on record as 0.5 mM. For the same compound, the “peak concentration for chemotaxis” value in experiment [2] is “about 10 mM”. For the same compound, in experiment [3], the “chemotactic index (peak response)” value is 1.74. In addition, the “concentration generating the maximum chemotactic response” value in experiment [4] is 0.5 mM.
